Test results published in patent publication US20230052740A1, “MODULATORS OF CIRCADIAN RHYTHMS AND USES THEREOF” (The Regents of the University of California, priority 2019, published 2023).
Read-outs that look alike come from different tables or passages of the source.

Legend:
MT2 = target: T1, MT2 (Homo sapiens, UniProt P49286); test: cAMP assay (GloSensor), isoproterenol-stimulated cAMP in HEK cells; format: cell-based; parameters: expressed in transfected cells; host or cells: HEK-T (HEK-293 T) cells, co-transfected with GloSensor DNA; MT2 activity: dose or concentration left out as unconfirmed; settings: for selectivity for MT2 over MT1: FIG. 7 analogs of '9032; for type selectivity / efficacy at the MT2 receptor / MT2 selectivity (agonist): panel of widely-used MTR ligands; for type selectivity / efficacy at the MT2 receptor: in words
T1 sequence (P49286 1-362): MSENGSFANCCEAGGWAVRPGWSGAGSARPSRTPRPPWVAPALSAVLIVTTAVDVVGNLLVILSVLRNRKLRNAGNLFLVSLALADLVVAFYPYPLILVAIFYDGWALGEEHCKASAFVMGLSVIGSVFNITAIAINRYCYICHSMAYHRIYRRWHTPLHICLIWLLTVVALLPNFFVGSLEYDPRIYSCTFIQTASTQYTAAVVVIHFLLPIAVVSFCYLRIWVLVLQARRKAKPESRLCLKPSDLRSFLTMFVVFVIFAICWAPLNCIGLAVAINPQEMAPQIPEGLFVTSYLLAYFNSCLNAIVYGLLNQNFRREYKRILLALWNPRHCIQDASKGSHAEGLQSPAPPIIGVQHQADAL
Method: MT1 and MT2 receptors were tested using Promega's spilt luciferase based GboSensor cAMP biosensor technology. HEK-T cells were plated in 15 cm cell culture dish (at a density of 18 million cells) containing DMEM composed of 10% dialyzed FBS, 2 mM L-glutamine, 100 units/ml penicillin G, 100 μg/ml streptomycin for 4-6 hour. Then, cells were co-transfected with 8 μg of construct which encodes either MT1 or MT2 (de-Tangonized constructs) and […] of Glosensor DNA. […] The next day, cell medium were discarded and loaded with 20 μl of assay buffer (1×HBSS, 20 mM HEPES, pH 7.4, 0.1% BSA). To measure agonist activity of MT1 or MT2 receptor, 10 μl of test compound solution at 3× final concentration was added for 15 minutes followed by addition of 10 μl of luciferin/isoproterenol mixture (at a final concentration of 4 mM and 200 nM respectively) for another 15 mins for luminescence quantification. Then, plates were counted using SpectraMax luminescence reader (Molecular Device). Data were analyzed using GraphPad Prism 6.0.

hMT1 = hMT1 (Homo sapiens, UniProt P48039); test: as above; format: cell-based; parameters: expressed in transfected cells; host or cells: HEK-T (HEK-293 T) cells, co-transfected with GloSensor DNA
Method: HEK-293 T cells were maintained with complete Dulbecco's modified Eagle's medium (DMEM), which is composed of 10% fetal bovine serum (FBS), 2 mM L-glutamine, 100 units/ml penicillin G, 100 μg/ml streptomycin at 37° C. in the presence of 5% CO2
MT1 and MT2 receptors were tested using Promega's spilt luciferase based GboSensor cAMP biosensor technology. HEK-T cells were plated in 15 cm cell culture dish (at a density of 18 million cells) containing DMEM composed of 10% dialyzed FBS, 2 mM L-glutamine, 100 units/ml penicillin G, 100 μg/ml streptomycin for 4-6 hour. Then, cells were co-transfected with 8 μg of construct which encodes either MT1 or MT2 (de-Tangonized constructs) and […] of Glosensor DNA. Next day, transfected cells were seeded into poly-L-lysinecoated 384-well white clear bottom cell culture plates with complete DMEM with 1% dialized FBS at a density of 20,000 cells per well for another 24 h. The next day, cell medium were discarded and loaded with 20 μl of assay buffer (1×HBSS, 20 mM HEPES, pH 7.4, 0.1% BSA). To measure agonist activity of MT1 or MT2 receptor, 10 μl of test compound solution at 3× final concentration was added for 15 minutes followed by addition of 10 μl of luciferin/isoproterenol mixture (at a final concentration of 4 mM and 200 nM respectively) for another 15 mins for luminescence quantification. Then, plates were counted using SpectraMax luminescence reader (Molecular Device). Data were analyzed using GraphPad Prism 6.0.

[1] = HEK293, Table 1, agonist, normalized to melatonin response, read-out: MT2 % Emax (converted)
[2] = HEK293, Table 1, agonist, normalized to melatonin response, read-out: MT1 % Emax (converted)
[3] = HEK293, Table 2, agonist, normalized to melatonin response, read-out: MT2 % Emax (converted)
[4] = HEK293, Table 2, agonist, normalized to melatonin response, read-out: MT1 % Emax (converted)
[5] = HEK293, Table 2, cell marked Inverse (inverse agonist), read-out: MT2 % Emax (converted)
[6] = Table 2, cell marked Inverse (inverse agonist)
[7] = HEK293, Table 2, cell marked Inverse (inverse agonist), read-out: MT1 % Emax (converted)
[8] = HEK293, Table 1, cell marked Inverse (inverse agonist), read-out: MT2 % Emax (converted)
[9] = Table 1, cell marked Inverse (inverse agonist)
[10] = inverse agonist, read-out: EC50 at MT2
[11] = HEK293, Table 6, Inverse (inverse agonist), read-out: MT1 Emax
[12] = Table 6, Inverse (inverse agonist), read-out: MT1 pEC50 (converted)

hMT1, sequence (P48039 whole entry): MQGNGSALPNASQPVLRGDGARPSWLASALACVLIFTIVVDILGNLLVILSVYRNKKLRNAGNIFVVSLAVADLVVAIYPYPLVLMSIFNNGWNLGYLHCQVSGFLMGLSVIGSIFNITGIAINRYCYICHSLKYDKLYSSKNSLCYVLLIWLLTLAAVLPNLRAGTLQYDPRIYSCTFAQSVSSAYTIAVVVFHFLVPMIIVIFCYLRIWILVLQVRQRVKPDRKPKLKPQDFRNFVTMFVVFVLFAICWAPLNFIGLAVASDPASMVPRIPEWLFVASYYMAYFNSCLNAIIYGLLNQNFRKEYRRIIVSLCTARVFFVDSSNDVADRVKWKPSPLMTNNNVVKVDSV

COC(=O)c1sc(N(C)Cc2ccc(Cl)nc2)nc1Cl [ZINC92585174]
Emax (MT2; [1]): 74%
Emax (hMT1; [2]): 98%
MT1 pEC50 (hMT1; Table 1, agonist): 7.80 ± 0.17

Cn1c(=O)oc2c(NCc3ccc(-c4cc[nH]n4)o3)cccc21 [ZINC433313647]
Emax (MT2; [1]): 96%
Emax (hMT1; [2]): 42%
MT1 pEC50 (hMT1; Table 1, agonist): 6.81 ± 0.32

CN(Cc1ccc2c(c1)OCO2)c1ccnc(Cl)c1 [ZINC223593565]
Emax (MT2; [3]): 58%
Emax (hMT1; [4]): 86%

COc1ccc(C2CC2)c(CNc2cccnc2)c1
Emax (MT2; HEK293, Table 5, read-out: MT2 Emax): 75 ± 5%
EC50 (MT2; Table 5, MT2 receptor agonists, read-out: MT2 pEC50 (converted)): 1.82 nM

COC(=O)c1ccc(I)c(Oc2ccnc(C)n2)c1 [ZINC432154404]
Emax (MT2; [1]): 74%
Emax (hMT1; [2]): 95%
MT1 pEC50 (hMT1; Table 1, agonist): 6.63 ± 0.17

COc1ccc(CN(C(=O)C2CC2C)c2ccncc2)cc1 (stereo not drawn) [ZINC151209032]
MT2 activity (MT2): without detectable MT2 activity
Emax (hMT1; [2]): 88%
EC50 (hMT1; agonist, read-out: EC50 at MT1): 2000 to 6000 nM

COc1ccc(CN(C(=O)c2ccccc2F)c2ccncc2)cc1 [ZINC151192780]
selectivity for MT2 over MT1 (MT2): 200 fold
Emax (MT2; [3]): 95%
MT2 pEC50 (MT2; Table 2, agonist): 7.13 ± 0.12
Emax (hMT1; [4]): 54%
MT1 pEC50 (hMT1; Table 2, agonist): 5.18 ± 0.22

Clc1ccc(CNc2cccc(-c3nnc[nH]3)c2)c(Cl)c1 [ZINC157676497]
Emax (MT2; [5]): 62%
MT2 pEC50 (MT2; [6]): 6.01 ± 0.30
Emax (hMT1; [7]): 60%
MT1 pEC50 (hMT1; [6]): 7.32 ± 0.05

CN(Cc1ccc2c(c1)OCO2)c1ccnc(Cl)c1 [ZINC301472854]
Emax (MT2; [1]): 88%
Emax (hMT1; [2]): 95%
MT1 pEC50 (hMT1; Table 1, agonist): 6.03 ± 0.10

Cc1nnc(-c2cccc(NCc3ccc(Cl)cc3)c2)[nH]1 [ZINC37781620]
Emax (MT2; [5]): 120%
MT2 pEC50 (MT2; [6]): 6.20 ± 0.10
Emax (hMT1; [7]): 19%
MT1 pEC50 (hMT1; [6]): 7.90 ± 0.90

Clc1cc(Br)ccc1CNc1cccc(-c2nnc[nH]2)c1 [ZINC516666069]
Emax (MT2; [5]): 118%
MT2 pEC50 (MT2; [6]): 5.58 ± 0.04
Emax (hMT1; [7]): 42%
MT1 pEC50 (hMT1; [6]): 7.05 ± 0.03

COc1ccc2cccc(CCNC(C)=O)c2c1 [agomelatine, reference compound]
type selectivity (MT2): little type selectivity

COc1ccc(CNc2cccc(-c3nnc[nH]3)c2)cc1 [ZINC157665999]
Emax (MT2; [8]): 90%
MT2 pEC50 (MT2; [9]): 7.29 ± 0.16
EC50 (MT2; [10]): 50 nM
Emax (hMT1; [2]): 63%
MT1 pEC50 (hMT1; Table 1, agonist): 4.89 ± 0.38
EC50 (hMT1; agonist, read-out: EC50 at MT1): 10000 nM

COC(=O)c1csc(CSc2nnc(C3CC3)[nH]2)c1 [ZINC713465976]
Emax (MT2; [3]): 94%
MT2 pEC50 (MT2; Table 2, agonist): 8.23 ± 0.11
Emax (hMT1; [4]): 101%
MT1 pEC50 (hMT1; Table 2, agonist): 7.75 ± 0.22

COc1ccc(CN(C)C(=O)c2cccc(OC(F)F)c2)cc1O [ZINC353044322]
MT2 activity (MT2): without detectable MT2 activity
Emax (hMT1; [2]): 87%
MT1 pEC50 (hMT1; Table 1, agonist): 5.48 ± 0.05
EC50 (hMT1; agonist, read-out: EC50 at MT1): 2000 to 6000 nM

CCOC(=O)c1nc(N(C)CC2CCCC2O)ccc1Br (stereo not drawn) [ZINC603324490]
Emax (MT2; [8]): 202%
EC50 (MT2; [10]): 600 nM
Emax (hMT1; HEK293, Table 1, cell marked Inverse (inverse agonist), read-out: MT1 % Emax (converted)): 37%
MT1 pEC50 (hMT1; [9]): 5.92 ± 0.29
MT1 efficacy (hMT1; in the concentration range of its MT2 inverse agonism (600 nM)): without substantial MT1 efficacy

COC(=O)c1cc(Cn2nc(C)c(N)c2C)c(C)s1 [ZINC602421874]
Emax (MT2; [3]): 66%
MT2 pEC50 (MT2; Table 2, agonist): 5.35 ± 0.10
Emax (hMT1; [4]): 51%
MT1 pEC50 (hMT1; Table 2, agonist): 4.70 ± 0.11

CCC(=O)NC1CCc2cccc(OC)c2C1 (stereo not drawn) [Compound 8M-PDOT, reference compound]
type selectivity (MT2): little type selectivity

CCC(=O)NCC[C@@H]1CCc2ccc3c(c21)CCO3 [ramelteon, reference compound]
type selectivity (MT2): little type selectivity

COC(=O)c1cc(Cn2ccn3c(=O)cc(C)nc23)c(C)s1 [ZINC419113878]
MT2 activity (MT2): without detectable MT2 activity
Emax (hMT1; [2]): 84%
MT1 pEC50 (hMT1; Table 1, agonist): 5.20 ± 0.08
EC50 (hMT1; agonist, read-out: EC50 at MT1): 2000 to 6000 nM

Cc1nc(-c2cccc(NCc3ncc(Cl)cc3Br)c2)n[nH]1 [Compound Z3668902489]
Emax (hMT1; [11]): 47%
EC50 (hMT1; [12]): 245 nM

CCc1nc(SCc2cccc(C(=O)OC)c2)nc(O)c1C [ZINC576887661]
Emax (MT2; [1]): 68%
Emax (hMT1; [2]): 83%
MT1 pEC50 (hMT1; Table 1, agonist): 7.10 ± 0.19

CCCCC(=O)NCCc1c(Cc2ccccc2)[nH]c2ccccc12 [DH97, reference compound]
efficacy at the MT2 receptor (MT2): partial agonism

COCCN(Cc1ccc2c(c1)OCO2)c1nc(C(F)(F)F)ns1 [ZINC580731466]
selectivity for the MT2 receptor (MT2): ~100 fold
Emax (MT2; [1]): 98%
Emax (hMT1; [2]): 71%
MT1 pEC50 (hMT1; Table 1, agonist): 5.70 ± 0.13

COc1ccc(CN(C(=O)OC2CCC2)c2ccncc2)cc1 [ZINC497291360]
selectivity for MT2 over MT1 (MT2): 2 fold
Emax (MT2; [3]): 75 ± 50.1%
MT2 pEC50 (MT2; Table 2, agonist): 7.48 ± 0.05
Emax (hMT1; [4]): 92%
MT1 pEC50 (hMT1; Table 2, agonist): 7.05 ± 0.10

Cc1cc(=O)n2ccn(CCc3ccc4c(c3)OC(F)(F)O4)c2n1 [ZINC664088238]
Emax (MT2; [1]): 75%

CC(=O)NCCc1c[nH]c2ccccc12 [N-acetyl tryptamine, reference compound]
MT2 selectivity (agonist) (MT2): 39 fold

CC(=O)NCCc1c(Cc2ccccc2)[nH]c2ccccc12 [Luzindole, reference compound]
efficacy at the MT2 receptor (MT2): partial agonism

c1cc(NCc2ccc(C3CCC3)nc2)cc(-c2cc[nH]n2)c1 [Compound Z3668902476]
Emax (hMT1; [11]): 30%
EC50 (hMT1; [12]): 75.9 nM

CCC(=O)NC1Cc2ccccc2C(c2ccccc2)C1 (stereo not drawn) [Compound 4P-PDOT, reference compound]
MT2 selectivity (agonist) (MT2): 150 fold
